# Results: US10913773B2, “Bicyclic peptidyl inhibitor of tumor necrosis factor-alpha” (Ohio State Innovation Foundation, priority 2016, dated 2021)
# Columns and labels:
# TNFα = biological target: T1, TNFα (Homo sapiens, UniProt P01375); test: Fluorescence anisotropy (FA) binding of fluorescently labeled bicyclic peptides to TNFα; conditions: labeled at free N-terminal amine with 6-carboxyfluorescein
# T1 construct: ybbR tag (13 aa) (N); made in house; host or cells: Escherichia coli
# Procedure: FITC-labeled bicyclic peptide (50 or 100 nM) were incubated with varying concentrations of TNFα (0-5 μM) in 30 mM HEPES, pH 7.4, 150 mM NaCl, and 2 mM magnesium acetate for 2 h. The FA values were measured on a Molecular Devices Spectramax M5 spectrofluorimeter, with excitation and emission wavelengths at 485 and 525 nm, respectively. Equilibrium dissociation constants (KD) were determined by plotting the FA values as a function of TNFα concentration and fitting the data to the following equation
# [formula] where Y is the measured anisotropy at a given TNFα concentration x; L is the bicyclic peptide concentration; Qb/Qf is the correction fact for dye-protein interaction; Amax is the maximum anisotropy when all the peptides are bound to TNFα, while Amin is the minimum anisotropy. Competition experiments were performed by incubating 100 nM Asn-Asn-Asn-Lys(FITC)-labeled anticachexin C1 (Table 1), 2 μM of TNFα, and varying concentrations of unlabeled competitor peptide (0-20 μM) in the above buffer for 2 h. The FA values were plotted against the competitor peptide concentration to determine the IC50 values.
# To identify residues significant for TNFα binding, each residue of anticachexin C1 (other than D-alanine at position-3, L-lysine at position-4, and L-2,3-diaminopropionic acid (Dap) at position-10) was individually replaced with an alanine (or D-alanine). To facilitate binding analysis by fluorescence anisotropy (FA), a tetrapeptide NNNK (SEQ ID NO: 1) was added to the C-terminus of each bicyclic peptide and the lysine side chain was labeled with fluorescein isothiocyanate (FITC) during solid-phase synthesis (Scheme 1). The three asparagine residues were added to improve the aqueous solubility of the bicyclic peptides. The bicyclic peptide was prepared by first synthesizing the full-length linear sequence on Rink amide resin using standard Fmoc/HBTU chemistry. The side chains of the two internal cyclization residues, L-lysine and Dap, were protected with monomethoxytrityl (Mmt) groups, whereas the C-terminal lysine was protected with an allyloxycarbonyl (Alloc) group. After removal of the N-terminal Fmoc group, a trimesic acid was coupled to the N-terminal amine using HBTU as the coupling agent. Next, the Mmt groups were selectively removed from the Lys and Dap side chains by 2% TFA and the peptide was cyclized by treatment with (benzotriazol-1-yloxy)tripyrrolidinophosphonium hexafluorophosphate (PyBOP). The Alloc group on the C-terminal lysine side chain was removed by treatment with Pd(PPh3)4 and the bicyclic peptide was selectively labeled at the C-terminal lysine by treating the resin with FITC. […] On the other hand, phenylglycine (Phg)-1 and glycine-7 play more minor roles in binding.
# TNFα-TNFR1 interaction = biological target: T2, TNFα-TNFR1 interaction (Homo sapiens, UniProt P01375); test: ELISA inhibition of TNFα-TNFR1 interaction (immobilized biotinylated TNFα, TNFR1-HRP); format: binding
# T2 construct: made in house; host or cells: Escherichia coli (TNFα)
# [1] = tested on: TNFα-induced activation of NF-κB; test: NF-κB luciferase reporter assay in NF-κB reporter (Luc)-HEK293 cells; format: cell-based; conditions: 6 μM peptide, 5 ng/mL TNFα
# Procedure: NF-κB reporter (Luc)-HEK293 cells 30 (BPS Bioscience, San Diego, Calif.) were seeded at a density of 5,000 cells per well in Greiner white 96-well cell culture microplates in 50 μL of growth medium (DMEM+10% FBS+1% P/S). Cells were incubated overnight at 37° C. in the presence of 5% CO2. TNFα (5 ng/mL) and different concentrations of compound C1-74-2 (0-6 μM) were incubated for 1 h in 5 μL of growth medium (DMEM+5% FBS+1% P/S) at 37° C. in the presence of 5% CO2. The growth medium in the plate was replaced with 50 μL of fresh medium (DMEM+5% FBS+1% P/S). The pre-incubated TNFα and peptide mixture (5 μL) was added into each well, with 5 μL of growth medium only added as the control. The cells were incubated at 37° C. with 5% CO2 for 2 h. Fifty μL of ONE-Step™ Luciferase Assay reagent (BPS Bioscience, San Diego, Calif.) was added into each well. The whole plate was incubated at room temperature for 5 min and the luminescence generated was measured on a Tecan M1000 Pro microplate reader.
# WEHI-13VAR cells were treated with TNFα in the presence of increasing concentrations of C1-74-2 (0-20 μM) and the cell lysates were probed with antibodies specific for phosphorylated JNK (p-JNK) as well as total JNK. […]
# [2] = biological target: T3, TNFα (infliximab binding) (Homo sapiens, UniProt P01375); test: Binding of infliximab-HRP conjugate to immobilized TNFα; conditions: 0, 2 or 6 μM peptide
# T3 construct: ybbR tag (13 aa) (N); made in house; host or cells: Escherichia coli
# Procedure: FIG. 6A is a graph showing the competition for binding to TNFα (2 μM) between C1-74-2 (0-15 μM) and C1-NNNK(FITC) (100 nM) as monitored by FA. FIG. 6B is a graph showing binding of infliximab-HRP conjugate to immobilized TNFα in the absence and presence of C1-74-2 (0, 2, or 6 μM).
# The four peptides were tested for inhibition of the TNFα-TNFR1 interaction by using the ELISA assay.
# T3 sequence (P01375 77-233 limits assumed): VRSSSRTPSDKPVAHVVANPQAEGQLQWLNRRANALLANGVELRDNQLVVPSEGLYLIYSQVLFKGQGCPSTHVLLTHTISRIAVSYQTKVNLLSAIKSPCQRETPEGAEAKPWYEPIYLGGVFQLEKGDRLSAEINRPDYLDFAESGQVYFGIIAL
compound,measurement,setting,value
CC(=O)[C@@H]1CCCN(C(=O)[C@@H](Cc2c[nH]cn2)NC(=O)C(N)C(C)C)C1 (some centres unmarked) [Compound C1-74-2],Kd,TNFα,40 ± 7 nM
same,IC50,"TNFα-TNFR1 interaction; inhibition of TNFα-TNFR1 interaction, unlabeled peptides",12 ± 2 nM
same,Improvement of IC50 over C1-74 (fold),TNFα-TNFR1 interaction; relative to C1-74,~6 fold
same,Reduction of TNFα-induced luciferase activity,[1],~50%
same,Inhibition of infliximab binding to surface-immobilized TNFα,[2],inhibited the binding of anti-TNFα antibody infliximab to a surface-immobilized TNFα in a concentration-dependent manner
